Results published in US20150105252A1, “SUBSTITUTED PYRAZOLES AS HERBICIDES” (E I DU PONT DE NEMOURS AND COMPANY, priority 2013, published 2015).

Columns and labels:
pigweed = assay: Test A preemergence; type: in vivo, Amaranthus retroflexus; details: preemergence
Outline: (§1)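 Greenhouse test in loam soil/sand blend; compounds formulated in non-phytotoxic solvent with surfactant, applied as preemergence directed soil spray or postemergence to plants 2–10 cm tall at one- to two-leaf stage. Injury rated visually versus untreated controls after approximately 10 days on a 0 (no effect) to 100 (complete control) scale.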

wheat [1] = assay: Test A postemergence; type: in vivo, Triticum aestivum
Outline: as §1

rice = assay: Test B flood; type: in vivo, Oryza sativa; details: 250 g ai/ha, visual rating on 0 to 100 scale (0 no effect, 100 complete control), 13 to 15 days
Outline: (§2)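 Plants were grown to the 2-leaf stage and pots flooded to 3 cm above soil. Compounds were applied directly into the paddy water, with depth kept for the test. After 13–15 days in greenhouse, response was rated visually against controls on a 0 (no effect) to 100 (complete control) scale.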

sedge, umbrella = assay: Test B flood; type: in vivo, Cyperus difformis; details: 250 g ai/ha, visual rating on 0 to 100 scale (0 no effect, 100 complete control), 13 to 15 days
Outline: as §2

wheat [2] = assay: Test C preemergence; type: in vivo, Triticum aestivum; details: for Plant response rating (scale of 0 to 100), Wheat: Preemergence, 250 g ai/ha; for Wheat plant response rating / Plant response rating, Wheat: preemergence, 13 to 15 days; for Wheat plant response rating: scale 0 to 100 (0 no effect, 100 complete control); for Plant response rating, Wheat: 125 g ai/ha, scale 0 to 100, 0 = no effect, 100 = complete control
Outline: (§3)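 Postemergence values come from plants sprayed at the 1- to 4-leaf stage (2–18 cm) in peat moss–vermiculite medium; preemergence values from seeds treated in a loam–sand blend. Both evaluated visually against controls after 13–15 greenhouse days, scale 0–100.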

galium = assay: Test C preemergence; type: in vivo, Galium aparine; details: for Plant response rating (scale of 0 to 100), Galium: Preemergence, 250 g ai/ha; for Galium plant response rating / Plant response rating, Galium: preemergence, 13 to 15 days; for Galium plant response rating: scale 0 to 100 (0 no effect, 100 complete control); for Plant response rating, Galium: 125 g ai/ha, scale 0 to 100, 0 = no effect, 100 = complete control
Outline: as §3

corn = assay: Test C preemergence; type: in vivo, Zea mays; details: for Plant response rating (scale of 0 to 100), Corn: Preemergence, 250 g ai/ha; for Corn plant response rating / Plant response rating, Corn: preemergence, 13 to 15 days; for Corn plant response rating: scale 0 to 100 (0 no effect, 100 complete control); for Plant response rating, Corn: 125 g ai/ha, scale 0 to 100, 0 = no effect, 100 = complete control
Outline: as §3

lambsquarters [3] = assay: Test C preemergence; type: in vivo, Chenopodium album; details: for Plant response rating (scale of 0 to 100), Lambsquarters: Preemergence, 250 g ai/ha; for Lambsquarters plant response rating / Plant response rating, Lambsquarters: preemergence, 13 to 15 days; for Lambsquarters plant response rating: scale 0 to 100 (0 no effect, 100 complete control); for Plant response rating, Lambsquarters: 125 g ai/ha, scale 0 to 100, 0 = no effect, 100 = complete control
Outline: as §3

ragweed = assay: Test C preemergence; type: in vivo, Ambrosia elation; details: for Plant response rating (scale of 0 to 100), Ragweed: Preemergence, 250 g ai/ha; for Ragweed plant response rating / Plant response rating, Ragweed: preemergence, 13 to 15 days; for Ragweed plant response rating: scale 0 to 100 (0 no effect, 100 complete control); for Plant response rating, Ragweed: 125 g ai/ha, scale 0 to 100, 0 = no effect, 100 = complete control
Outline: as §3

ryegrass, Italian = assay: Test C postemergence; type: in vivo, Lolium multiflorum; details: for Plant response rating (scale of 0 to 100 where 0 is no effect and 100 is complete control), Ryegrass, Italian: Postemergence, 31 g ai/ha, visually evaluated after 13 to 15 days; for Ryegrass, Italian plant response rating / Plant response rating, Ryegrass, Italian: postemergence; for Ryegrass, Italian plant response rating: 62 g ai/ha, scale 0 to 100
Outline: as §3

crabgrass, large = assay: Test C postemergence; type: in vivo, Digitaria sanguinalis; details: for Plant response rating (scale of 0 to 100 where 0 is no effect and 100 is complete control), Crabgrass, Large: Postemergence, 31 g ai/ha, visually evaluated after 13 to 15 days; for Crabgrass, Large plant response rating / Plant response rating, Crabgrass, Large: postemergence; for Crabgrass, Large plant response rating: 62 g ai/ha, scale 0 to 100
Outline: as §3

lambsquarters [4] = assay: Test C postemergence; type: in vivo, Chenopodium album; details: for Plant response rating (scale of 0 to 100 where 0 is no effect and 100 is complete control), Lambsquarters: Postemergence, 31 g ai/ha, visually evaluated after 13 to 15 days; for Lambsquarters plant response rating / Plant response rating, Lambsquarters: postemergence; for Lambsquarters plant response rating: 62 g ai/ha, scale 0 to 100
Outline: as §3

kochia = assay: Test C postemergence; type: in vivo, Kochia scoparia; details: for Plant response rating (scale of 0 to 100 where 0 is no effect and 100 is complete control), Kochia: Postemergence, 31 g ai/ha, visually evaluated after 13 to 15 days; for Kochia plant response rating / Plant response rating, Kochia: postemergence; for Kochia plant response rating: 62 g ai/ha, scale 0 to 100
Outline: as §3

[5] = 125 g ai/ha, visual injury, 0 to 100 scale, approx. 10 days
[6] = 500 g ai/ha, visual injury after approx. 10 days, 0 to 100 scale (0 no effect, 100 complete control)
[7] = Postemergence, 500 g ai/ha, 0 to 100 scale (0 no effect, 100 complete control)
[8] = postemergence, 125 g ai/ha, about 10 days, visual rating on 0 to 100 scale (0 no effect, 100 complete control)
[9] = 250 g ai/ha, scale 0 to 100 (0 no effect, 100 complete control)
[10] = 125 g ai/ha, scale 0 to 100, 0 no effect, 100 complete control

Compound: CCCc1cc(C(=O)NCC(F)(F)F)nn1Cc1ccnc(OC(F)F)c1 [Compound 127]
- Pigweed plant response rating (pigweed; [5]): 90
- Pigweed plant response rating (pigweed; [6]): 100
- Wheat plant response rating (wheat [1]; [7]): 90
- Wheat plant response rating (wheat [1]; [8]): 80
- Plant response rating, Rice (rice): 20
- Plant response rating, Sedge, Umbrella (sedge, umbrella): 85
- Plant response rating (scale of 0 to 100), Wheat (wheat [2]): 85
- Wheat plant response rating (wheat [2]; 31 g ai/ha, visual rating): 5
- Wheat plant response rating (wheat [2]; 62 g ai/ha): 40
- Plant response rating, Wheat (wheat [2]): 85
- Plant response rating (scale of 0 to 100), Galium (galium): 100
- Galium plant response rating (galium; 31 g ai/ha, visual rating): 80
- Galium plant response rating (galium; 62 g ai/ha): 100
- Plant response rating, Galium (galium): 100
- Plant response rating (scale of 0 to 100), Corn (corn): 45
- Corn plant response rating (corn; 31 g ai/ha, visual rating): 5
- Corn plant response rating (corn; 62 g ai/ha): 25
- Plant response rating, Corn (corn): 65
- Plant response rating (scale of 0 to 100), Lambsquarters (lambsquarters [3]): 100
- Lambsquarters plant response rating (lambsquarters [3]; 31 g ai/ha, visual rating): 100
- Lambsquarters plant response rating (lambsquarters [3]; 62 g ai/ha): 80
- Plant response rating, Lambsquarters (lambsquarters [3]): 90
- Plant response rating (scale of 0 to 100), Ragweed (ragweed): 90
- Ragweed plant response rating (ragweed; 31 g ai/ha, visual rating): 15
- Ragweed plant response rating (ragweed; 62 g ai/ha): 25
- Plant response rating, Ragweed (ragweed): 60
- Plant response rating (scale of 0 to 100 where 0 is no effect and 100 is complete control), Ryegrass, Italian (ryegrass, Italian): 5
- Ryegrass, Italian plant response rating (ryegrass, Italian): 5
- Plant response rating, Ryegrass, Italian (ryegrass, Italian; [9]): 40
- Plant response rating, Ryegrass, Italian (ryegrass, Italian; [10]): 10
- Plant response rating (scale of 0 to 100 where 0 is no effect and 100 is complete control), Crabgrass, Large (crabgrass, large): 10
- Crabgrass, Large plant response rating (crabgrass, large): 10
- Plant response rating, Crabgrass, Large (crabgrass, large; [9]): 55
- Plant response rating, Crabgrass, Large (crabgrass, large; [10]): 20
- Plant response rating (scale of 0 to 100 where 0 is no effect and 100 is complete control), Lambsquarters (lambsquarters [4]): 65
- Lambsquarters plant response rating (lambsquarters [4]): 80
- Plant response rating, Lambsquarters (lambsquarters [4]; [9]): 85
- Plant response rating, Lambsquarters (lambsquarters [4]; [10]): 85
- Plant response rating (scale of 0 to 100 where 0 is no effect and 100 is complete control), Kochia (kochia): 60
- Kochia plant response rating (kochia): 65
- Plant response rating, Kochia (kochia; [9]): 90
- Plant response rating, Kochia (kochia; [10]): 65

Compound: CCOc1cc(C(=O)NCC(F)(F)F)nn1Cc1ccnc(OC(F)F)c1 [Compound 128]
- Pigweed plant response rating (pigweed; [5]): 100
- Pigweed plant response rating (pigweed; [6]): 100
- Wheat plant response rating (wheat [1]; [7]): 90
- Wheat plant response rating (wheat [1]; [8]): 70
- Plant response rating, Rice (rice): 30
- Plant response rating, Sedge, Umbrella (sedge, umbrella): 90
- Plant response rating (scale of 0 to 100), Wheat (wheat [2]): 85
- Wheat plant response rating (wheat [2]; 31 g ai/ha, visual rating): 20
- Wheat plant response rating (wheat [2]; 62 g ai/ha): 30
- Plant response rating, Wheat (wheat [2]): 70
- Plant response rating (scale of 0 to 100), Galium (galium): 100
- Galium plant response rating (galium; 31 g ai/ha, visual rating): 80
- Galium plant response rating (galium; 62 g ai/ha): 80
- Plant response rating, Galium (galium): 100
- Plant response rating (scale of 0 to 100), Corn (corn): 70
- Corn plant response rating (corn; 31 g ai/ha, visual rating): 15
- Corn plant response rating (corn; 62 g ai/ha): 45
- Plant response rating, Corn (corn): 65
- Plant response rating (scale of 0 to 100), Lambsquarters (lambsquarters [3]): 98
- Lambsquarters plant response rating (lambsquarters [3]; 31 g ai/ha, visual rating): 98
- Lambsquarters plant response rating (lambsquarters [3]; 62 g ai/ha): 100
- Plant response rating, Lambsquarters (lambsquarters [3]): 98
- Plant response rating (scale of 0 to 100), Ragweed (ragweed): 90
- Ragweed plant response rating (ragweed; 31 g ai/ha, visual rating): 25
- Ragweed plant response rating (ragweed; 62 g ai/ha): 65
- Plant response rating, Ragweed (ragweed): 85
- Plant response rating (scale of 0 to 100 where 0 is no effect and 100 is complete control), Ryegrass, Italian (ryegrass, Italian): 5
- Ryegrass, Italian plant response rating (ryegrass, Italian): 10
- Plant response rating, Ryegrass, Italian (ryegrass, Italian; [9]): 30
- Plant response rating, Ryegrass, Italian (ryegrass, Italian; [10]): 15
- Plant response rating (scale of 0 to 100 where 0 is no effect and 100 is complete control), Crabgrass, Large (crabgrass, large): 5
- Crabgrass, Large plant response rating (crabgrass, large): 5
- Plant response rating, Crabgrass, Large (crabgrass, large; [9]): 85
- Plant response rating, Crabgrass, Large (crabgrass, large; [10]): 30
- Plant response rating (scale of 0 to 100 where 0 is no effect and 100 is complete control), Lambsquarters (lambsquarters [4]): 60
- Lambsquarters plant response rating (lambsquarters [4]): 80
- Plant response rating, Lambsquarters (lambsquarters [4]; [9]): 98
- Plant response rating, Lambsquarters (lambsquarters [4]; [10]): 95
- Plant response rating (scale of 0 to 100 where 0 is no effect and 100 is complete control), Kochia (kochia): 60
- Kochia plant response rating (kochia): 65
- Plant response rating, Kochia (kochia; [9]): 90
- Plant response rating, Kochia (kochia; [10]): 65
